Assay results from article PMC7849011, “Defining the Antimalarial Activity of Cipargamin in Healthy Volunteers Experimentally Infected with Blood-Stage Plasmodium falciparum” (Antimicrobial Agents and Chemotherapy, 2021).
Where “and” joins values, the source holds several entries; their conditions need not be identical. Equal values may be shown once. Entries after “also recorded” stand apart in the source; their conditions may differ. Read-outs that look alike come from different tables or passages of the source.

Tests used:
[1] = Safety assessment (adverse events, clinical laboratory, ECG); type: in vivo, human
Experimental: Safety assessments were performed throughout the study from screening and included adverse event reporting, physical examination, vital signs, clinical laboratory evaluation (hematology, biochemistry, and urinalysis), electrocardiography (ECG), and malaria clinical score recording. The malaria clinical score served as a clinical indication of the severity of the induced malaria infection; 14 signs and symptoms commonly associated with malaria were graded using a 3-point scale (0 = absent, 1 = mild, 2 = moderate, and 3 = severe), and the values were summed in order to generate an overall score (with a maximum possible score of 42). The severity of AEs was graded in accordance with the Common Terminology Criteria for Adverse Events, version 4.03 (https://evs.nci.nih.gov/ftp1/CTCAE/CTCAE_4.03/CTCAE_4.03_2010-06-14_QuickReference_5x7.pdf).

[2] = tested on: P. falciparum gametocytes; experiment: Direct membrane feeding assay (DMFA), transmission to Anopheles stephensi mosquitoes; type: in vivo, Plasmodium falciparum; settings: blood collected 20 days after cipargamin dosing
Experimental: The transmission of parasites from subjects to female Anopheles stephensi mosquitoes was measured using a direct membrane feeding assay (DMFA) as previously described ([23]). Briefly, ∼100 mosquitoes (3 to 7 days old) were allowed to feed on a water-jacketed membrane feeder filled with venous blood collected 20 days after cipargamin dosing into lithium heparin anticoagulant tubes. Seven to 9 days after blood feeding, mosquitoes were dissected to detect oocysts in midgut preparations using qPCR targeting the gene encoding 18S rRNA.

[3] = cited from earlier work
[4] = 25 P. falciparum patients, single doses of 10, 15, 20 or 30 mg
[5] = P. falciparum patient, day 6, not considered related
[6] = P. vivax patient, day 9, 30 mg per day for 3 days

SMILES: C[C@H]1Cc2c([nH]c3cc(Cl)c(F)cc23)[C@@]2(N1)C(=O)Nc1ccc(Cl)cc12 [cipargamin]
- Abdominal discomfort ([1]; 10 mg, N=8): 4 (50.0) n (%)
- Alanine aminotransferase increased ([1]; 10 mg, N=8): 2 (25.0) n (%)
- Arthralgia ([1]; 10 mg, N=8): 2 (25.0) n (%)
- Aspartate aminotransferase increased ([1]; 10 mg, N=8): 1 (12.5) n (%)
- Cardiac disorders (system organ class) ([1]; 10 mg, N=8): 1 (12.5) n (%)
- Chills ([1]; 10 mg, N=8): 3 (37.5) n (%)
- Decreased appetite ([1]; 10 mg, N=8): 3 (37.5) n (%)
- Diarrhoea ([1]; 10 mg, N=8): 2 (25.0) n (%)
- Drug-induced liver injury ([1]; 10 mg, N=8): 1 (12.5) n (%)
- Eye disorders (system organ class) ([1]; 10 mg, N=8): 1 (12.5) n (%)
- Gamma-glutamyltransferase increased ([1]; 10 mg, N=8): 2 (25.0) n (%)
- Gastrointestinal disorders (system organ class) ([1]; 10 mg, N=8): 5 (62.5) n (%)
- General disorders and administration site conditions (system organ class) ([1]; 10 mg, N=8): 6 (75.0) n (%)
- Haemoptysis ([1]; 10 mg, N=8): 1 (12.5) n (%)
- Head discomfort ([1]; 10 mg, N=8): 1 (12.5) n (%)
- Headache ([1]; 10 mg, N=8): 5 (62.5) n (%) and 5 n (%)
- Hepatobiliary disorders (system organ class) ([1]; 10 mg, N=8): 1 (12.5) n (%)
- Hyperhidrosis ([1]; 10 mg, N=8): 3 (37.5) n (%)
- Investigations (system organ class) ([1]; 10 mg, N=8): 3 (37.5) n (%)
- Lethargy ([1]; 10 mg, N=8): 4 (50.0) n (%)
- Liver function test abnormal ([1]; 10 mg, N=8): 1 (12.5) n (%)
- Liver tenderness ([1]; 10 mg, N=8): 1 (12.5) n (%)
- Malaise ([1]; 10 mg, N=8): 4 (50.0) n (%)
- Metabolism and nutrition disorders (system organ class) ([1]; 10 mg, N=8): 3 (37.5) n (%)
- Musculoskeletal and connective tissue disorders (system organ class) ([1]; 10 mg, N=8): 5 (62.5) n (%)
- Myalgia ([1]; 10 mg, N=8): 5 (62.5) n (%) and 5 n (%)
- Nausea ([1]; 10 mg, N=8): 1 (12.5) n (%)
- Neck pain ([1]; 10 mg, N=8): 1 (12.5) n (%)
- Nervous system disorders (system organ class) ([1]; 10 mg, N=8): 6 (75.0) n (%)
- Non-cardiac chest pain ([1]; 10 mg, N=8): 1 (12.5) n (%)
- Photophobia ([1]; 10 mg, N=8): 1 (12.5) n (%)
- Pyrexia ([1]; 10 mg, N=8): 6 (75.0) n (%) and 6 n (%)
- Rales ([1]; 10 mg, N=8): 1 (12.5) n (%)
- Rash ([1]; 10 mg, N=8): 1 (12.5) n (%)
- Respiratory, thoracic and mediastinal disorders (system organ class) ([1]; 10 mg, N=8): 3 (37.5) n (%)
- Rhinorrhoea ([1]; 10 mg, N=8): 1 (12.5) n (%)
- Skin and subcutaneous tissue disorders (system organ class) ([1]; 10 mg, N=8): 4 (50.0) n (%)
- Subjects with at least one adverse event ([1]; 10 mg, N=8): 8 (100) n (%)
- Tachycardia ([1]; 10 mg, N=8): 1 (12.5) n (%)
- Urticaria ([1]; 10 mg, N=8): 1 (12.5) n (%)
- AEs leading to discontinuation: No. (%) of subjects ([1]; 10 mg, 8 subjects): 0 (0)
- AEs leading to discontinuation: No. of AEs ([1]; 10 mg, 8 subjects): 0
- AEs mild in severity, of all AEs ([1]; 10 mg, 8 subjects): 68/89
- Any AEs, cipargamin related: No. (%) of subjects ([1]; 10 mg, 8 subjects): 4 (50.0)
- Any AEs, cipargamin related: No. of AEs ([1]; 10 mg, 8 subjects): 10
- Any AEs: No. (%) of subjects with at least 1 AE ([1]; 10 mg, 8 subjects): 8 (100)
- Any AEs: No. of AEs ([1]; 10 mg, 8 subjects): 89
- Moderate AEs (grade 2), cipargamin related: No. (%) of subjects ([1]; 10 mg, 8 subjects): 2 (25.0)
- Moderate AEs (grade 2), cipargamin related: No. of AEs ([1]; 10 mg, 8 subjects): 2
- Moderate AEs (grade 2): No. (%) of subjects ([1]; 10 mg, 8 subjects): 7 (87.5)
- Moderate AEs (grade 2): No. of AEs ([1]; 10 mg, 8 subjects): 18
- SAEs: No. (%) of subjects ([1]; 10 mg, 8 subjects): 3 (37.5)
- SAEs: No. of AEs ([1]; 10 mg, 8 subjects): 3
- Severe AEs (grade 3), cipargamin related: No. (%) of subjects ([1]; 10 mg, 8 subjects): 2 (25.0)
- Severe AEs (grade 3), cipargamin related: No. of AEs ([1]; 10 mg, 8 subjects): 2
- Severe AEs (grade 3): No. (%) of subjects ([1]; 10 mg, 8 subjects): 2 (25.0)
- Severe AEs (grade 3): No. of AEs ([1]; 10 mg, 8 subjects): 3
- hematology, urinalysis, or electrocardiogram (ECG) parameters ([1]; 10 mg, 8 subjects): no clinically significant abnormalities
- maximum ALT, times ULN ([1]; subject 1): 5.2 × ULN
- maximum AST ([1]; subject 1): 88 U/liter
- maximum AST, times ULN ([1]; subject 1): 2.2 × ULN
- maximum ALT ([1]; subject 1, onset 8 days after dosing): 208 U/liter
- ALT ([1]; subject 3, 8 days after dosing): 187 U/liter
- ALT, times ULN ([1]; subject 3, 8 days after dosing): 4.6 × ULN
- AST ([1]; subject 3, 8 days after dosing): 106 U/liter
- AST, times ULN ([1]; subject 3, 8 days after dosing): 2.6 × ULN
- GGT ([1]; subject 3, 8 days after dosing): 215 U/liter
- GGT, times ULN ([1]; subject 3, 8 days after dosing): 4.3 × ULN
- bilirubin ([1]; subject 3, 8 days after dosing): 74 µmol/L
- bilirubin, times ULN ([1]; subject 3, 8 days after dosing): 3.7 × ULN
- conjugated bilirubin ([1]; subject 3, 8 days after dosing): 22 µmol/L
- conjugated bilirubin, times ULN ([1]; subject 3, 8 days after dosing): 3.1 × ULN
- peak ALT, times ULN ([1]; subject 8): 24.1 × ULN
- peak AST ([1]; subject 8): 443 U/liter
- peak AST, times ULN ([1]; subject 8): 11 × ULN
- peak GGT ([1]; subject 8): 159 U/liter
- peak GGT, times ULN ([1]; subject 8): 3.1 × ULN
- peak ALT ([1]; subject 8, onset 11 days after dosing): 964 U/liter
- transmission to mosquitoes (oocysts in midgut by qPCR) [2]: did not transmit to mosquitoes; also recorded: could not be detected; also recorded: not observed
- AUC0–∞ ([3]; 10 mg, patients with naturally acquired malaria): 6400 ng·h/mL
- LFT abnormalities ([3]; 30 mg per day for 3 days, 11 P. falciparum and 10 P. vivax patients): three subjects displayed LFT abnormalities
- patients with increased ALT [3, 4]: only one patient displayed increased ALT
- patients with increased blood alkaline phosphatase [3, 4]: 40%
- subjects with hyperbilirubinemia [3, 4]: 20%
- increased ALT [3, 5]: 192 U/liter
- increased AST [3, 5]: 121 U/liter
- peak ALT [3, 6]: 241 U/liter
- peak AST [3, 6]: 106 U/liter
- peak ALT ([3]; other P. vivax patient, day 6): 78 U/liter
- peak AST ([3]; other P. vivax patient, day 6): 63 U/liter
- patients with asymptomatic transient ALT elevations (>3 × ULN) ([3]; single 75-mg dose, cohort of 11 P. falciparum patients, ref unpublished, NCT01860989): four patients had asymptomatic transient ALT elevations
